In article PMC5722318, “Absence of anti-hypocretin receptor 2 autoantibodies in post pandemrix narcolepsy cases” (PLoS ONE, 2017):
Where two headings read alike, the source gives them in different places.

Tested on: DQ0602
Assay type: binding, human
Details: for % Read #1 / Read #1: replicate 1; for % Average: mean of two reads; for % Read #2 / Read #2: replicate 2; for Average: mean of the two raw reads; for Read #1 / Read #2: raw signal read
[1] = % of Bio-EBV binding, first assay (02/04/2016, 07/15/2016 or 08/11/2016, by peptide)
[2] = % of Bio-EBV binding, repeat assay (07/19/2016, 07/18/2016 or 08/12/2016, by peptide)
[3] = first assay (02/04/2016, 07/15/2016 or 08/11/2016, by peptide)
[4] = repeat assay (07/19/2016, 07/18/2016 or 08/12/2016, by peptide)

| Sequence | Average (two assays) [%] | mean of Bio-EBV epitope binding ± SD (40 μM competitor peptide, 25 nM DQ0602, 100 nM HLA-DM, 1 μM Bio-EBV, acetate pH 4.6, 3 days at 37°C, duplicate, Eu-streptavidin TRF, lower percentage = stronger competitor) | % Read #1 (% of Bio-EBV binding (Bio-EBV average = 100), first assay (02/04/2016, 07/15/2016 or 08/11/2016, by peptide)) [%] | % Average [1] [%] | % Average [2] [%] | % Read #1 [2] [%] | % Read #2 [1] [%] | % Read #2 [2] [%] | Average [3] | Average [4] | Read #1 (first assay (02/04/2016, 07/15/2016 or 08/11/2016, by peptide), competition against Bio-EBV epitope) | Read #1 [4] | Read #2 [3] | Read #2 [4] | binding to DQ0602 (in words) (competition with Bio-EBV epitope, 40 μM peptide, […]) |
| --- | --- | --- | --- | --- | --- | --- | --- | --- | --- | --- | --- | --- | --- | --- | --- |
| HDSNKGVTAACPH [HA143-155 146N, synthetic 13-mer hemagglutinin peptide containing wild-type 146N] | 43.7826 | 43.78% ± 1.34% | 41.1935 | 42.8329 | 44.7324 | 43.7047 | 44.4722 | 45.7602 | 8060.5 | 7464.5 | 7752 | 7293 | 8369 | 7636 |  |
| YDDEEFLRYLWR [HCRTR2_34-45] |  |  |  |  |  |  |  |  |  |  |  |  |  |  | did not appear to bind to DQ0602 |
